Test results from patent publication US20040138234A1, “Histamine receptor antagonists” (Pfizer Inc, priority 2001, published 2004).
Where a name gives a salt, the structure may show the parent alone.

Tests used:
human eosinophils [1] = assay: Promotion of chemotaxis of interleukin 5 primed human isolated eosinophils (agonist mode); type: cell-based; details: interleukin 5 priming; for promotion of chemotaxis of human eosinophils: concentrations of from 10^−4 to 10^−5 M
Method: (§1) A further functional assay for the histamine H4 receptor determines the ability of histamine to induce chemotaxis in eosinophils isolated from human blood. In this assay cells are primed with interleukin 5 and the ability of histaminergic ligands to promote migration of eosinophils across a permeable membrane is studied. The number of cells migrating in a defined period is then counted. Agonist potencies are expressed as EC50 values. Antagonists can also be studied by pre-incubating eosinophils with the compound and then assessing the inhibitory effects on histamine (or other suitable ligand) on eosinophil chemotaxis. The experiments can be performed in one of two ways. Firstly, by increasing the concentration of antagonist versus fixed concentration of agonist and calculating the IC50 for each antagonist. Secondly, by increasing the concentration of antagonist versus increasing the concentration of agonist and expressing the antagonist potency as a pkb or pA2 value, as appropriate.

histamine H4 receptor = target: T1, histamine H4 receptor (Homo sapiens, UniProt Q9H3N8); assay: Histamine H4 receptor radioligand binding, HEK293 cell line membranes
T1 construct: expressed in transfected cells; host or cells: HEK293
T1 sequence (Q9H3N8 whole entry): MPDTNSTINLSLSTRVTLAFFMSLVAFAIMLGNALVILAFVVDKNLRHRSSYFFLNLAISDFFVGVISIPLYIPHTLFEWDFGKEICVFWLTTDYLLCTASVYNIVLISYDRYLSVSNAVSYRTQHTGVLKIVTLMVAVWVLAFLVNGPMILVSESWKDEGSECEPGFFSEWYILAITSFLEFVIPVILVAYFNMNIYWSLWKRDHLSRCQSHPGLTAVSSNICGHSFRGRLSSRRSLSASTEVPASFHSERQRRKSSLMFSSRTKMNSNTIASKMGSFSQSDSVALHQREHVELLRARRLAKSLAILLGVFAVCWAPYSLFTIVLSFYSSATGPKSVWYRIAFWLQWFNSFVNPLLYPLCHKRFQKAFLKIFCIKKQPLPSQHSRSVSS
Text: The cDNA for the human histamine H3 and H4 receptor can be expressed in a suitable cell line such as HEK293 or CHO. In addition membranes can be prepared from tissues or cells which naturally express either the histamine H3 and/or H4 receptor. Affinity can be assessed at either receptor by assessing the ability of ligands to inhibit the binding of a suitable radioactively labelled ligand to membranes containing either the histamine H3 or H4 receptor. The potency of compounds is compared by calculating their pKI values.

human eosinophils [2] = assay: Inhibition of histamine-induced chemotaxis of human eosinophils (eosinophil pre-incubation method); type: cell-based; details: for effect on histamine-induced chemotaxis: at concentrations of 10 micromolar; for IC50: Homo sapiens, Eosinophil, eosinophils pre-incubated with antagonist, concentration related
Method: as §1

NCCc1c[nH]cn1 [histamine]
promotion of chemotaxis of human isolated eosinophils (human eosinophils [1]; concentration range 10^−8 to 10^−5 M): promoted chemotaxis

NC(=NCc1ccc(Cl)cc1)SCCCc1cnc[nH]1 [Clobenpropit]
Ki (histamine H4 receptor): 0.00661 µM

CN/C(=N/CCSCc1nc[nH]c1C)NC#N [cimetidine]
effect on histamine-induced chemotaxis (human eosinophils [2]): little or no effect

COc1ccc(CN(CCN(C)C)c2ccccn2)cc1 [mepyramine maleate]
effect on histamine-induced chemotaxis (human eosinophils [2]): little or no effect

N=C(N)SCCc1cnc[nH]1 [imetit]
promotion of chemotaxis of human eosinophils (human eosinophils [1]): did not promote chemotaxis

CN(C)CCCSC(=N)N [dimaprit]
promotion of chemotaxis of human eosinophils (human eosinophils [1]): did not promote chemotaxis

S=C(NC1CCCCC1)N1CCC(c2cnc[nH]2)CC1 [thioperamide maleate]
IC50 (human eosinophils [2]): 0.83 µM

CC(CCCCC(=O)Nc1ccc(C(F)(F)F)cc1)NCCc1cnc[nH]1 (stereo not drawn) [HTMT]
promotion of chemotaxis of human eosinophils (human eosinophils [1]): did not promote chemotaxis

NC(=NCc1ccc(Cl)cc1)SCCCc1cnc[nH]1 [clobenpropit dihydrobromide]
IC50 (human eosinophils [2]): 1.5 µM
